Patent publication US20030206936A1, “Cosmetic composition and method of treating skin and hair” (Unilever Home & Personal Care USA, Division of Conopco, Inc., priority 2002, published 2003)

Key:
Assay type in all cases: cell-based
[1] = test system: Corynebacterium A NCIMB 40928; experiment: In vitro model of fatty acid catabolism by corynebacteria A (TVC, glucose and pentadecanoic acid utilisation); conditions: 24 h
Procedure: An in vitro model system, reproducing fatty acid catabolism by corynebacteria A, consisted of 250 ml baffled shake flasks, to which were added 30 ml semi-synthetic medium (see below) supplemented with fatty acid substrate (2.0 mg/ml pentadecanoic acid) and non-fatty acid substrate (0.5 mg/ml glucose). This system was employed to evaluate sargahydroquinoic acid as a potential deodorant active: to each flask (other than the control) was added and specific dose of sargahydroquinoic acid (isolated from Kombo nut oil at >90% purity), from a 25 g/l stock emulsion in semi-synthetic medium supplemented with 5.0 mg/ml Gum Arabic (formed by ultra-homogenisation at 24000 rpm for 1 min) Flasks were inoculated with fresh bacterial biomass (Corynebacterium A NCIMB 40928), pre-grown for 24 h in TSBT (see below), to give starting optical densities (A5 9 0) of ˜1.0. Following inoculation, flasks were incubated aerobically at 35°0 C., with agitation (130 rpm), and analysed at 24 h. Culture viability was determined by total viable count (TVC) analysis on TSAT plates (see below) following serial dilution in quarter-strength Ringers solution. Fatty acid concentrations were determined by capillary gas chromatography (GC) (see below), while residual glucose levels were measured with blood glucose test strips (BM-Test 1-44; Boehringer Mannheim) used in conjunction with a ReflofluxS glucose meter (Boehringer Mannheim). A ‘sub-lethal’ effect is defined as significant inhibition of fatty acid catabolism, typically greater than 50% inhibition of pentadecanoic acid utilization, without concomitant reductions in Corynebacterium A viability (≦1 log10 CFU/ml reduction) or glucose utilization (≦10% reduction). Outside one or both of these defined boundaries, the effect may be described as ‘antimicrobial’, where ‘antimicrobial’ includes both bacteriostatic & bactericidal effects. Composition of Tween-supplemented Tryptone soya broth & agar (TSBT & TSAT) used for growth & maintenance of axillary bacterial (g/l): Tryptone soya broth (30.0); Yeast Extract (Beta Lab) (10.0); Tween 80™ (1.0); ± Agar (20.0). Composition of semi-synthetic medium used in in vitro system simulating fatty acid catabolism by corynebacteria A (g/l): KH2PO, (1.6);(NH4) 2HPO4(5.0); Na2SO4 (0.38); Yeast Nitrogen Base (Difco)(3.35); Yeast Extract (Beta Lab)(0.5); Tween 80™ (0.2); Triton X-100™ (0.2); MgCl2.6H20(0.5). Fatty acid levels in the flasks were determined by capillary GC analysis. Initially, 5.0 ml aliquots from each flask were transferred into universal tubes; an internal standard (lauric acid, 1.0 mg/ml final concentration) was added to each tube and the culture medium acidified (pH ˜2) by the addition of hydrochloric acid. Liquid-liquid extraction was then carried out using 2 vol (10 ml) ethyl acetate; organic and aqueous phases were resolved by centrifugation (2000 rpm, 3 min). ˜0.75 ml of each organic (upper) phase was then transferred to a sampling vial prior to analysis on a Perkin Elmer 8000 (Series 2) GC fitted with a 15 m ×0.32 mm (internal diameter) FFAP (nitroterephalic acid modified PEG/siloxane copolymer) fused silica capillary column (film thickness […]) (Quadrex). This column was attached to the split-splitless injector and flame ionisation detector (FID) of the GC; injector and detector temperatures were each 300° C. Carrier gas for the column was helium (6 psi), while hydrogen (17 psi) and air (23 psi) supplied the FID. The temperature programme for fatty acid analysis was 80° C.(2 min); 80-250° C. (20° C./min); 250° C. (5 min). Sample size for injection was 0.5-1.0 μl . Fatty acid levels in the flasks were quantified by comparison of peak areas with known levels of both internal (lauric acid) and externally-run (pentadecanoic acid) standards.

[2] = test system: decorin; experiment: Dot blot assay for decorin synthesis in human dermal fibroblasts; conditions: primary human foreskin fibroblasts, 24 hours, relative to vehicle control; effect similar to retinoic acid
Procedure: Procedure For Measuring Procollagen-I and Decorin Synthesis in Human Dermal Fibroblasts
Preparation of Dermal Fibroblast Conditioned Medium
Primary human foreskin fibroblasts at passage 2 (P2) were seeded into 12-well plates at 10000 cells/cm^2 and maintained for 24 hours in an atmosphere of 5% carbon dioxide and 4% oxygen in Dulbeccos Modified Eagles Medium (DMEM) supplemented with 10% foetal calf serum. After this time the cells were washed with serum free DMEM and then incubated in fresh serum free DMEM for a further 60 hours. The fibroblast monolayers were then washed again with serum free DMEM. […] This fibroblast conditioned medium was either analyzed immediately or snap frozen in liquid nitrogen and stored at −70° C. for future analysis. The cells were then counted and data from the dot-blot analysis subsequently standardized to cell number. […]
Following this the Immobilon strips were again washed with TBS/Tween 20 (3×5 minutes) before being allowed to dry in air at room temperature. […] Dot intensity was assessed by computer-assisted image TM analysis using the quantification tools in ImageQuant™, standardized to cell number and the effects of various test reagents on decorin and procollagen-I synthesis were determined relative to a vehicle treated control value of 100 arbitrary units.

[3] = biological target: T1, PPARα (Homo sapiens, UniProt Q07869); experiment: Reporter gene assay (PPARα) in transfected Cos-7 cells; conditions: 10 μM, 24 hours
T1 construct: expressed in transfected cells; host or cells: Cos-7 cells (ECACC No. 87021302), transient transfection with LipofectAMINE
T1 sequence (Q07869 1-468): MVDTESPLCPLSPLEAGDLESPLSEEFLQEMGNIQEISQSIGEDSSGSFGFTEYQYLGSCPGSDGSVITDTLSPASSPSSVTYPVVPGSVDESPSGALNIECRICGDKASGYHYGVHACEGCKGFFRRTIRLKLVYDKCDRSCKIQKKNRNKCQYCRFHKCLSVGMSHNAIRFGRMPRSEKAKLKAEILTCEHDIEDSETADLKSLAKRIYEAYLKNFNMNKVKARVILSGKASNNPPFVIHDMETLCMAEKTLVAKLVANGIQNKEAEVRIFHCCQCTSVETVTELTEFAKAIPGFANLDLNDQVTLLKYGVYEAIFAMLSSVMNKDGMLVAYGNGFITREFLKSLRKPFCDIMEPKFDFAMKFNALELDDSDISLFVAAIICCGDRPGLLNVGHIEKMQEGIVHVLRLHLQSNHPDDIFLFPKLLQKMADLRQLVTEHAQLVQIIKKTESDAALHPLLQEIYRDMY
Procedure: The following assay protocol is responsive to ligands of PPARα or retinoid X receptor.
Reporter Gene Assay Protocol
Cos-7 cells (ECACC No. 87021302) were routinely grown in DMEM with 10% FCS (foetal calf serum) at 37° C., 5% CO2 to 80% confluency. Transient transfections were performed as described by the manufacturers (GibcoBRL). Briefly, cells were plated out in 24 well plates at 50,000 cells per well and incubated overnight in DMEM with 10% FCS at 37° C., 5% CO2,. Cells were then transfected using the LipofectAMINE reagent. For each well, 0.5 μg of DNA mix (for “control” cells pPPRE3TK-luc 0.40 μg; pRL-TK 0.04 μg; pcDNA3.1(−) 0.03 μg; pRSV 0.03 μg; for “plus RXRα” cells pPPRE3TK-luc 0.40 μg; pRL-TK 0.04 μg; pcDNA3.1(−) 0.03 μg; pRSV/RXRα 0.03 μg; for “plus PPARα” cells pPPRE3TK-luc0.40 μg; pRL-TK 0.04 μg pcDNA3.1(−)/PPARα 0.03 μg pRSV 0.03 μg) in 25 μl of DMEM was incubated with 1 μl LipofectAMINE, also in 25 μl of DMEM for 45 minutes.
The mixture was then made up to 250 μl per well and added to the cells, which had been washed with 1 ml of DMEM. Cells were then incubated for 5 hours at 37° C., 5% CO2, and 250 μl DMEM with 20% SBCS (charcoal stripped bovine calf serum (Sigma)) added. Cells were allowed to recover for 18 hours at 37° C., 5% CO2 before being treated. […]

CC(C)=CCC/C(=C/CC/C(C)=C/CC/C(C)=C/Cc1cc(O)cc(C)c1O)C(=O)O [Sargahydroquinoic acid] was tested, and the “Glucose Utilisation” value ([1]; 0.05 g/l) was 100%, the “Pentadecanoic Acid Utilisation” value ([1]; 0.05 g/l) was 99% and the TVC ([1]; 0.05 g/l) was 8.67 log10 CFU/ml. For the same compound, the “Glucose Utilisation” value ([1]; 0.1 g/l, * sub-lethal) was 100* %, the “Pentadecanoic Acid Utilisation” value ([1]; 0.1 g/l, * sub-lethal) was 58* % and the TVC ([1]; 0.1 g/l, * sub-lethal) was 8.83* log10 CFU/ml. For the same compound, the “Glucose Utilisation” value ([1]; 0.25 g/l, * sub-lethal) was >90* %, the “Pentadecanoic Acid Utilisation” value ([1]; 0.25 g/l, * sub-lethal) was 15* % and the TVC ([1]; 0.25 g/l, * sub-lethal) was 7.93* log10 CFU/ml. For the same compound, the “Glucose Utilisation” value ([1]; 0.5 g/l, * sub-lethal) was 100* %, the “Pentadecanoic Acid Utilisation” value ([1]; 0.5 g/l, * sub-lethal) was 19* % and the TVC ([1]; 0.5 g/l, * sub-lethal) was 7.85* log10 CFU/ml. The “Glucose Utilisation” value ([1]; 1.0 g/l, antimicrobial effect) was >90%, the “Pentadecanoic Acid Utilisation” value ([1]; 1.0 g/l, antimicrobial effect) was 5% and the TVC ([1]; 1.0 g/l, antimicrobial effect) was 7.3 log10 CFU/ml. The “Glucose Utilisation” value ([1]; 2.5 g/l, antimicrobial effect) was 7%, the “Pentadecanoic Acid Utilisation” value ([1]; 2.5 g/l, antimicrobial effect) was 25% and the TVC ([1]; 2.5 g/l, antimicrobial effect) was <3.0 log10 CFU/ml. For the same compound, the inhibition at 50 µg/mL ([1]; Corynebacterium, NCIMB40928, 0.05 g/l, in parentheses = not significant) was 1%, the inhibition at 100 µg/mL ([1]; Corynebacterium, NCIMB40928, 0.1 g/l, * sub-lethal) was 42% and the inhibition at 250 µg/mL ([1]; Corynebacterium, NCIMB40928, 0.25 g/l, * sub-lethal) was 85%. For the same compound, the inhibition at 500 µg/mL ([1]; Corynebacterium, NCIMB40928, 0.5 g/l, * sub-lethal) was 81%, the inhibition at 1000 µg/mL ([1]; Corynebacterium, NCIMB40928, 1.0 g/l, antimicrobial effect) was 95% and the inhibition at 2500 µg/mL ([1]; Corynebacterium, NCIMB40928, 2.5 g/l, antimicrobial effect) was 75%. The “effect on decorin production (FIG. 1)” value [2] was “enhances decorin production” and the “PPARα ligand activity in reporter gene assay (FIG. 2)” value [3] was “is a ligand for PPARα”.
